# Laboratory results published in patent publication US20040116529A1, “Anticancer and chemopreventative agents and methods of use thereof” (priority 2001, published 2004).
# How the values were obtained:
# [1] = tested on: prostate specific antigen (PSA); experiment: Intracellular PSA levels in LNCaP cells exposed to DBM (Western analysis); format: cell-based, human
# Excerpt: (§1) LNCaP cells cultured in the presence of androgens secrete prostate specific antigen (PSA) into the culture medium.
# [2] = tested on: prostate specific antigen (PSA); experiment: Extracellular PSA secreted by LNCaP cells exposed to DBM (ELISA analysis); format: cell-based, human; conditions: baseline about 700
# Excerpt: as §1
# [3] = tested on: TRAMP (TRansgenic Adenocarcinoma of Mouse Prostate) mice; experiment: Prostate carcinogenesis in TRAMP mice fed 1% DBM diet; format: in vivo
# Excerpt: In other words, development of premalignant prostatic intraepithelial (PIN) neoplasia and primary adenocarcinoma of the prostate of TRAMP mice is similar to the development of prostate cancer in humans. TRAMP mice are discussed in greater detail in U.S. Pat. No. 5,907,087, which is incorporated herein by reference.
# (§2) Two groups of TRAMP mice were studied, where one is a control cohort and the other is the cohort fed DBM.
# [4] = Serum DBM levels in TRAMP mice fed 1% DBM diet; format: in vivo, mouse
# Excerpt: as §2
# [5] = tested on: human prostate cancer cells; experiment: Proliferation of human prostate cancer cells in vitro; format: cell-based
smiles,measurement,setting,value
"O=C(CC(=O)c1ccccc1)c1ccccc1 [DBM, dibenzoylmethane]",DBM concentration at which intracellular PSA is not readily detectable by Western analysis,[1],≥ 10 µM
same,PSA levels,"[1]; DBM at 10, 25 and 50 micromolar",dose-dependent down regulation
same,Extracellular PSA,[2]; 25 micromolar DBM,~150 nanograms per milliliter
same,Extracellular PSA,[2]; 50 micromolar DBM,~100 nanograms per milliliter
same,Extracellular PSA,[2]; at micromolar DBM (concentration not given),approximately 200 nanograms per milliliter
same,cancer and high-grade prostatic intraepithelial neoplasia versus control cohort,"[3]; 1% DBM diet, at 18 weeks",significantly less cancer and high-grade prostatic intraepithelial neoplasia
same,mice developing either adenocarcinoma or high grade PIN,"[3]; diet of 1% DBM (weight/weight) in AIN-76A from six weeks of age, control cohort 6 of 10",2 of 11
same,serum levels of DBM,[4]; diet of 1% DBM from six weeks of age,1000 nM
same,oral absorption from the gastrointestinal tract,[4]; oral DBM in diet,orally bioavailable
same,proliferation of human prostate cancer cells in vitro,[5],inhibit proliferation
